Results published in US20260206761A1, “HETEROARYL-TRIAZOLE COMPOUNDS AS PESTICIDES” (Bayer Aktiengesellschaft, priority 2019, published 2026).

How the values were obtained:
Assay type in all cases: in vivo
[1] = system: Rhipicephalus microplus larvae (strain Parkhurst, resistant against synthetic pyrethroids); assay: Rhipicephalus (Boophilus) microplus in-vitro contact test, larval cattle tick; settings: after 48 hours, read-out: activity (efficacy: larvae dead or moribund); for pest or weed control at 100 g/ha: application rate 1 pg/cm^2 (=100 g/ha); for pest or weed control at 500 g/ha: application rate 5 pg/cm^2 (=500 g/ha)
How it was run: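 Acetone solutions coated onto inner walls of glass tubes by rotation (900 ppm giving 5 μg/cm^2); after evaporation, 20-50 larvae added per tube and held at 27° C., 85% relative humidity. Efficacy read after 48 h from negative geotactic behaviour; 100% = all larvae dead or moribund.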

[2] = system: green peach aphid (Myzus persicae); assay: Myzus persicae oral test; settings: 120 h, application rate 4 ppm, after 5 days
How it was run: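 Oral uptake format: water-diluted acetone concentrate of compound is blended into IPL41 medium carrying 33%+15% sugar and offered under a parafilm membrane. Percentage of dead insects is recorded after 5 days.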

[3] = system: green peach aphid (Myzus persicae); assay: Myzus persicae spray test; settings: 120 h, after 5 days; for mortality at 100 g/ha: application rate 100 g/ha; for mortality at 500 g/ha: application rate 500 g/ha
Method: Myzus persicae—Spray Test
Solvent: 78.0 parts by weight acetone • 1.5 parts by weight dimethylformamide
Emulsifier: alkylarylpolyglycol ether
To produce a suitable preparation of active compound, 1 part by weight of active compound is mixed with the stated amount of solvents and is diluted with water, containing an emulsifier concentration of 1000 ppm, to the desired concentration. Further test concentrations are prepared by dilution with emulsifier containing water.
Chinese cabbage (Brassica pekinensis) leaf disks infected with all instars of the green peach aphid (Myzus persicae), are sprayed with a preparation of the active ingredient of the desired concentration.
After 5 days mortality in % is determined. 100% means all aphids have been killed and 0% means none of the aphids have been killed.

[4] = system: adult brown dog ticks (Rhipicephalus sanguineus); assay: Rhipicephalus sanguineus in-vitro contact test, adult brown dog ticks; settings: after 48 hours, read-out: activity (efficacy: ticks dead or moribund); for pest or weed control at 100 g/ha: application rate 1 pg/cm^2 (=100 g/ha); for pest or weed control at 5 µg/cm2, 500 g/ha: application rate 5 μg/cm^2 (=500 g/ha)
How it was run: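 Compound in acetone was coated onto inner walls of glass tubes by rotation (2 h, 30 rpm); 900 ppm gives 5 μg/cm^2. After drying, 5-10 adult ticks were enclosed per tube at room temperature; after 48 h, heat-escape test at 45-50° C scored dead/moribund ticks as % efficacy.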

[5] = system: adult cat fleas (Ctenocephalides felis); assay: Ctenocephalides felis in-vitro contact test, adult cat flea; settings: application rate 5 μg/cm^2 (=500 g/ha), after 48 hours, read-out: activity (efficacy: fleas dead or moribund)
Method: Ctenocephalides felis—In-Vitro Contact Tests Adult Cat Flea
9 mg compound is solved in 1 mL acetone and diluted with acetone to the desired concentration. 250 μL of the test solution is filled in 25 mL glass test tubes and homogeneously distributed on the inner walls by rotation and tilting on a shaking device (2 h at 30 rpm). With a compound concentration of 900 ppm, an inner surface of 44.7 cm^2 and a homogeneous distribution, a dose of […] is achieved.
After the solvent has evaporated, each test tube is filled with 5-10 adult cat fleas (Ctenocephalides felis), closed with a perforated lid and incubated in a lying position at room temperature and relative humidity. After 48 hours efficacy is determined. The fleas are patted on the ground of the tubes and are incubated on a heating plate at 45-50° C. for at most 5 minutes. Immotile or uncoordinated moving fleas, which are not able to escape the heat by climbing upwards, are marked as dead or moribund.
An efficacy of 100% means all fleas are dead or moribund; 0% means no fleas are dead or moribund.

[6] = system: larvae of the southern green stink bug (Nezara viridula); assay: Nezara viridula spray test; settings: 96 h, after 4 days; for mortality at 100 g/ha: application rate 100 g/ha; for mortality at 500 g/ha: application rate 500 g/ha
How it was run: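 Compound in acetone/dimethylformamide, diluted in water with 1000 ppm alkylarylpolyglycol ether emulsifier, sprayed onto barley plants carrying stink bug larvae. Mortality (%) scored after 4 days, 100% meaning all insects killed.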

[7] = system: larvae of the banded cucumber beetle (Diabrotica balteata); assay: Diabrotica balteata spray test; settings: 168 h, after 7 days, read-out: activity (efficacy: seedlings grown); for pest or weed control at 100 g/ha: application rate 100 g/ha (=32 pg/well); for pest or weed control at 500 g/ha: application rate 500 g/ha (=160 pg/well)
How it was run: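 Wheat seedlings, germinated 1 day on agar (5 seeds/well), sprayed with active compound in acetone/DMF diluted in water containing 1000 ppm emulsifier, then infested with 10-20 D. balteata larvae. Efficacy (%) scored after 7 days: 100% = seedlings grown as untreated uninfested control, 0% = no seedlings grown.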

[8] = system: fall armyworm larvae (Spodoptera frugiperda); assay: Spodoptera frugiperda spray test; settings: 168 h, read-out: activity (mortality)
How it was run: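 Compound in acetone/DMF, diluted in water with 1000 ppm alkylarylpolyglycol ether emulsifier, sprayed on maize leaf sections. Dried leaves infested with fall armyworm larvae; % mortality after 7 days (100% = all killed, 0% = none).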

[9] = system: adult unfed cat fleas (Ctenocephalides felis); assay: Ctenocephalides felis oral test; settings: 48 h, read-out: activity (mortality)
How it was run: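 About 20 adult unfed fleas fed through parafilm on cattle blood containing compound (DMSO stock diluted in blood), blood held at 37 °C and fleas at room temperature. Mortality (%) scored after 2 days.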

[10] = system: adult engorged female ticks (Rhipicephalus microplus); assay: Rhipicephalus (Boophilus) microplus injection test; settings: 168 h, egg deposition after 7 days, read-out: activity (efficacy: infertile eggs); for pest or weed control at 4 pg: application rate 4 pg/animal; for pest or weed control at 0.02 mg: application rate 20 μg/animal
How it was run: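 Efficacy is scored from egg fertility, with 100% meaning every egg infertile and 0% every egg fertile. Five engorged females per test received 1 μL DMSO solution abdominally. Eggs of unclear fertility were kept until hatching, about 42 days.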

[11] = system: Aedes aegypti strain MONHEIM; assay: Aedes aegypti test (AEDSAE surface treatment & contact assay); settings: 24 hours after contact, read-out: efficacy (mortality); for mortality at 4 mg/m2: surface concentration 4 mg/m^2, exposure 30 minutes
Method: Aedes aegypti Test (AEDSAE Surface Treatment & Contact Assay)
Solvent: Aceton+2000 ppm rapeseed oil methyl ester (RME)
In order to produce a sufficient, active ingredient containing solution it is necessary to solve the test compound in the solvent-mix (acetone at 2 mg/ml/RME 2000 ppm). This solution is pipetted onto a glazed tile and after evaporation of the acetone, adult mosquitoes of the species Aedes aegypti strain MONHEIM are placed onto the dried surface. The exposure time is 30 minutes. Mortality in percent (%) is determined 24 hours after contact of the insects to the treated surface. 100% mortality means that all tested insects are dead, whereas 0% means that no insect died.

C[C@H](NC(=O)c1cc(Cl)cc(S(C)(=O)=O)c1)c1nc(C2CC2)nn1-c1ncc(Cl)cn1 [I-61]
90%: mortality at 100 g/ha [3] | mortality at 500 g/ha [3]
100%: pest or weed control at 100 g/ha [1] | pest or weed control at 500 g/ha [1] | mortality at 4 ppm [2] | pest or weed control at 5 µg/cm2, 500 g/ha [4] | pest or weed control at 5 µg/cm2 [5] | mortality at 100 g/ha [6] | mortality at 500 g/ha [6] | pest or weed control at 100 g/ha [7] | mortality at 100 g/ha [8]
80%: pest or weed control at 100 g/ha [4]

C[C@H](NC(=O)c1cc(Br)cc(S(C)(=O)=O)c1)c1ncnn1-c1ccc(Cl)cn1 [II-40]
80 to 100%: mortality at 4 mg/m2 [11]
100%: pest or weed control at 100 g/ha [1] | pest or weed control at 500 g/ha [1] | mortality at 100 ppm [9] | pest or weed control at 4 pg [10] | pest or weed control at 0.02 mg [10] | pest or weed control at 100 g/ha [4] | pest or weed control at 5 µg/cm2, 500 g/ha [4] | pest or weed control at 5 µg/cm2 [5] | mortality at 100 g/ha [6] | mortality at 100 g/ha [8]

COc1nc([C@H](C)NC(=O)c2cc(Cl)cc(S(C)(=O)=O)c2)n(-c2ccc(Cl)cn2)n1 [I-45]
100%: mortality at 4 ppm [2] | pest or weed control at 4 pg [10] | pest or weed control at 5 µg/cm2 [5] | pest or weed control at 100 g/ha [7] | mortality at 100 g/ha [8]
90%: pest or weed control at 100 g/ha [1] | pest or weed control at 500 g/ha [1] | mortality at 100 g/ha [3]

C[C@H](NC(=O)c1cc(Cl)cc(C2(C#N)CC2)c1)c1ncnn1-c1cc(C#N)ccn1 [II-4]
100%: mortality at 100 ppm [9] | mortality at 4 ppm [2] | pest or weed control at 4 pg [10] | pest or weed control at 0.02 mg [10] | mortality at 100 g/ha [6] | mortality at 500 g/ha [6] | pest or weed control at 100 g/ha [7] | pest or weed control at 500 g/ha [7]
80 to 100%: mortality at 4 mg/m2 [11] | mortality at 20 mg/m2 ([11]; surface concentration 20 mg/m^2, exposure 30 minutes)
83%: mortality at 100 g/ha [8]
90%: mortality at 500 g/ha [3]
80%: pest or weed control at 5 µg/cm2 [5]

C[C@H](NC(=O)c1cc(C(F)F)cc(S(C)(=O)=O)c1)c1nc(C2CC2)nn1-c1ccc(C#N)cn1 [I-51]
100%: pest or weed control at 100 g/ha [1] | pest or weed control at 500 g/ha [1] | mortality at 100 ppm [9] | mortality at 4 ppm [2] | pest or weed control at 4 pg [10] | pest or weed control at 100 g/ha [7] | mortality at 100 g/ha [8]
90%: pest or weed control at 5 µg/cm2 [5]

Cc1nc([C@H](C)NC(=O)c2cc(C(F)F)cc(C3CC3)c2)n(-c2ccc(C#N)cn2)n1 [II-61]
90%: mortality at 100 g/ha [3]
83%: mortality at 100 g/ha [8]
100%: pest or weed control at 100 g/ha [1] | pest or weed control at 500 g/ha [1] | mortality at 4 ppm [2] | pest or weed control at 4 pg [10] | pest or weed control at 100 g/ha [4] | pest or weed control at 5 µg/cm2, 500 g/ha [4] | pest or weed control at 5 µg/cm2 [5] | mortality at 100 g/ha [6] | pest or weed control at 100 g/ha [7]

CCS(=O)(=O)c1cc(Cl)cc(C(=O)N[C@@H](C)c2nc(C3CC3)nn2-c2ncc(Cl)cn2)c1 [I-24]
80%: pest or weed control at 5 µg/cm2, 500 g/ha [4] | pest or weed control at 5 µg/cm2 [5]
100%: pest or weed control at 100 g/ha [1] | pest or weed control at 500 g/ha [1] | mortality at 4 ppm [2] | pest or weed control at 4 pg [10] | pest or weed control at 0.02 mg [10] | pest or weed control at 100 g/ha [4] | mortality at 100 g/ha [6] | mortality at 100 g/ha [8]
90%: mortality at 100 ppm [9]

CC(NC(=O)c1cc(Cl)cc(S(C)(=O)=O)c1)c1nc(C(F)F)nn1-c1ncccn1 (centres unmarked) [I-5]
80%: pest or weed control at 5 µg/cm2 [5]
100%: mortality at 100 ppm [9] | mortality at 4 ppm [2] | pest or weed control at 4 pg [10] | pest or weed control at 0.02 mg [10] | pest or weed control at 100 g/ha [7] | pest or weed control at 500 g/ha [7]
90%: mortality at 100 g/ha [6] | mortality at 500 g/ha [6]

C[C@H](NC(=O)c1cc(C#N)cc(S(C)(=O)=O)c1)c1ncnn1-c1ccccn1 [II-31]
83%: mortality at 500 g/ha [8]
100%: mortality at 100 ppm [9] | mortality at 4 ppm [2] | pest or weed control at 4 pg [10] | pest or weed control at 0.02 mg [10] | pest or weed control at 100 g/ha [4] | pest or weed control at 5 µg/cm2 [5] | mortality at 100 g/ha [6] | mortality at 500 g/ha [6] | pest or weed control at 100 g/ha [7] | pest or weed control at 500 g/ha [7]

C[C@H](NC(=O)c1cc(Cl)cc(S(C)(=O)=O)c1)c1ncnn1-c1ncc(I)cn1 [II-44]
100%: pest or weed control at 100 g/ha [1] | pest or weed control at 500 g/ha [1] | mortality at 100 ppm [9] | mortality at 4 ppm [2] | pest or weed control at 4 pg [10] | pest or weed control at 0.02 mg [10] | pest or weed control at 5 µg/cm2 [5] | mortality at 100 g/ha [6] | mortality at 100 g/ha [8]

Cc1nc([C@H](C)NC(=O)c2cc(Cl)cc(S(=O)(=O)C(F)(F)F)c2)n(-c2ccc(C#N)cn2)n1 [II-15, 3-chloro-N-{(1S)-1-[1-(5-cyanopyridin-2-yl)-3-methyl-1H-1,2,4-triazol-5-yl]ethyl}-5-[(trifluoromethyl)sulfonyl]benzamide]
100%: pest or weed control at 100 g/ha [1] | pest or weed control at 500 g/ha [1] | mortality at 100 ppm [9] | mortality at 4 ppm [2] | pest or weed control at 4 pg [10] | pest or weed control at 0.02 mg [10] | mortality at 500 g/ha [6] | pest or weed control at 100 g/ha [7] | pest or weed control at 500 g/ha [7] | mortality at 100 g/ha [8] | mortality at 500 g/ha [8]
90%: mortality at 500 g/ha [3] | pest or weed control at 5 µg/cm2 [5]
